No end group written: not given here.
Tests used:
[1] = system: T-cells in HAM/TSP culture
Method: Proliferation assays were performed on HAM/TSP patient blood samples with and without the addition of BNZ-γ. These assays evaluated the ability of BNZ-γ to block the function of cytokines, such as IL-2 and IL-15, present in the ex vivo HAM/TSP patient blood culture and prevent spontaneous T-cell proliferation in these samples.
In an ex vivo spontaneous T-cell proliferation assay, PBMC from HAM/TSP patient was cultured at 1×10(6) cells per well of a 96 well plate in RPMI-10% FCS. Increasing concentrations of BNZ-γ peptide were added to each well. […] The cells were incubated in a 37° C. CO2 incubator for 3, 4, and 6 days. The amount of 1 uCi of ^3H-thymidine was added to the cells. After an additional 6 hour incubation, cells were harvested their proliferation rate was measured.
Other immunological markers were additionally measured in this assay. […] The population of CD4+CD25+ cells, a marker of T-cell activation, as well as Ki67 staining, a marker of T-cell proliferation, was monitored in a flow cytometry assay.

[2] = system: IL-15-mediated tyrosine-phosphorylation of STAT5; test: IL-15-mediated tyrosine phosphorylation of STAT5 in PT-18β cells (immunoblot); assay type: cell-based, murine; settings: PT-18β cells stimulated by IL-15, anti-phospho-STAT5 immunoblot
Description: In addition to stimulating cellular proliferation, binding of the γc-cytokines to their receptors causes a diverse array of intracellular events. (Rochman et al. 2009 Nat. Rev. Immunol. 9:480-90, Pesu et al. 2005 Immunol. Rev. 203:127-142.) Immediately after the cytokine binds to its receptor, a tyrosine kinase called Jak3 (Janus-kinase 3) is recruited to the receptor at the plasma membrane. This kinase phosphorylates the tyrosine residues of multiple proteins including the γc-subunit, STAT5 (Signal Transducer and Activator of Transcription 5) and subunits of the PI3 (Phosphatidylinositol 3) kinase. Among these, the phosphorylation of STAT5 has been implicated in many studies as being linked to the proliferation of cells initiated by the γc-cytokine. (Reviewed in Hennighausen and Robinson, 2008 Genes Dev. 22:711-21.) In accordance with these published data, whether or not the BNZ-γ peptide inhibits the tyrosine phosphorylation of STAT5 molecule in PT-18β cells stimulated by IL-15 was examined (results shown in FIG. 3C).
PT-18β cells were stimulated by IL-15 in the presence or absence of BNZ-γ peptide. Cytoplasmic proteins were extracted from the cells according to a conventional method as described in Tagaya et al. 1996 EMBO J. 15:4928-39. […]

IL-15 = IL-15 (Homo sapiens, UniProt P40933); test: PT-18β proliferation assay (WST-1), IL-15; assay type: cell-based; settings: PT-18β cells, 1 nM IL-15, BNZ-γ from HEK293T supernatant 1:20 or 1:50, 2 days
IL-15, sequence (P40933 49-162): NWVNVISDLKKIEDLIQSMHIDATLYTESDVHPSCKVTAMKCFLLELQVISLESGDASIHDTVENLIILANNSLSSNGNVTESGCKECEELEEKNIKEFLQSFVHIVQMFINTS
Description: (§1) For each of the six γc-cytokines, indicator cell lines: CTLL-2, a murine CD8 T cells line available from American Type Culture Collection, and PT-18, a murine mast cell line and its subclone PT-183, is transfected with human IL-2Rβ gene to make the cells responsive to IL-2 and IL-15 (Tagaya et al., 1996, EMBO J. 15:4928-39), and is used to quantitatively determine the γc-cytokine's growth-promoting activity (See Current protocols in Immunology from Wiley and Sons for a methodological reference). […] Once the appropriate doses of the cytokine that yield the 50% and 95% maximum response from the indicator cell line is determined, various concentrations (ranging from 1 pM to 10 μM) of the purified or synthesized custom derivative peptide is added to each well containing the cytokine and indicator cells. The reduction in light absorbance at 450 nm is used as an indicator of inhibition of cytokine-stimulated cellular proliferation. Typically, the cells are stimulated by the cytokines such that the absorbance of the well containing indicator cell line and the cytokine is between 2.0 and 3.0, which is reduced to a range of 0.1 to 0.5 by the addition of inhibitory peptides.
(§2) The growth-responses of the cells were determined 2 days after the introduction of BNZ-γ peptide and the cytokine using the WST-1 assay. […]

IL-2 = test: PT-18 proliferation assay, IL-2 (FIG. 3A legend); assay type: cell-based
Method: The growth-responses of the cells were determined 2 days after the introduction of BNZ-γ peptide and the cytokine using the WST-1 assay. […] Cellular proliferation stimulated by IL-4, another γc-cytokine, was not affected by the by the addition of BNZ-γ peptide. Results for IL-3, IL-9, IL-15, and IL-4 are shown at FIG. 3A.

γc-cytokines = test: Target cytokine spectrum within the γc-family (summary statements); assay type: cell-based
IL-9 = molecular target: T1, IL-9 (Mus musculus, UniProt P15247); test: PT-18β proliferation assay (WST-1), IL-9; assay type: cell-based; settings: PT-18β cells, 1 nM IL-9, BNZ-γ from HEK293T supernatant 1:20 or 1:50, 2 days
T1 sequence (P15247 19-144): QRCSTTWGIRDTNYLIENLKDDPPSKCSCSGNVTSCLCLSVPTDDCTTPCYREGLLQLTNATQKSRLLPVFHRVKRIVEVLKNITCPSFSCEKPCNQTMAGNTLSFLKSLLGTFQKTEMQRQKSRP
Description: as §1, §2

IL-4 = molecular target: T2, IL-4 (Mus musculus, UniProt P07750); test: PT-18β proliferation assay (WST-1), IL-4; assay type: cell-based; settings: PT-18β cells, 1 nM IL-4, BNZ-γ from HEK293T supernatant 1:20 or 1:50, 2 days
T2 sequence (P07750 21-140): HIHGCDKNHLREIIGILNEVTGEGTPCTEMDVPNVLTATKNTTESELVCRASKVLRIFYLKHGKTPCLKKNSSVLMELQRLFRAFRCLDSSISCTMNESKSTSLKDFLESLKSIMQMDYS
Description: as §1, §2

IL-3 = molecular target: T3, IL-3 (Mus musculus, UniProt P01586); test: PT-18β proliferation assay (WST-1), IL-3 (non γc-cytokine control); assay type: cell-based; settings: PT-18β cells, 1 nM IL-3, BNZ-γ from HEK293T supernatant 1:20 or 1:50, 2 days
T3 sequence (P01586 27-166): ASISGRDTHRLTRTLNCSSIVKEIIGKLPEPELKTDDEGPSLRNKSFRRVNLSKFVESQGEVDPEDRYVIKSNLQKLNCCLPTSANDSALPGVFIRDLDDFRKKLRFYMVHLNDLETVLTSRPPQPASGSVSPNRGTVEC
Description: as §1, §2

IL-6 = test: T1165 proliferation in the presence of IL-6 (Example 25); assay type: cell-based, human or mouse
Method: The BNZ130-1 polypeptide as presented in Table 2, above, is tested for its activity in inhibiting IL-6 activity. T1165 cells that are dependent on human or mouse IL-6 for their growth in vitro are selected. The cell line is cultured in the absence of IL-6, In the presence of IL-6, in the presence of BNZ130-1, and in the presence of IL-6 and BNZ130-1.

[3] = HAM/TSP peripheral blood ex vivo culture, flow cytometry

Substance	percent of live cells by Guava staining [1]	concentration at which spontaneous proliferation of T-cells is inhibited ([1]; HAM/TSP patient PBMC, 3, 4 and 6 days, 3H-thymidine)	population of CD4+CD25+ cells [1, 3]	population of CD4+Ki67 cells [1, 3]	tyrosine phosphorylation of STAT5 [2]	growth-promoting activity of IL-15 (IL-15)	IL-2 activity in PT-18 proliferation assay (IL-2)	γc-cytokines not inhibited (γc-cytokines)	γc-cytokines inhibited (γc-cytokines; BNZ132-2 and BNZ132-3 data not shown)	growth-promoting activity of IL-9 (IL-9)	cellular proliferation stimulated by IL-4 (IL-4)	growth-promoting activity of IL-3 (non γc-cytokine) (IL-3)	effect on T1165 survival (IL-6; Example 25, with or without IL-6)	antagonistic activity on T1165 proliferation in the presence of IL-6 (IL-6; Example 25, written in present tense)
I-K-E-F-L-Q-R-F-I-H-I-V-Q-S-I-I-N-T-S (IKEFLQRFIHIVQSIINTS) [BNZ-γ]	not impacted	about 1 ug/ml	diminished	reduced	markedly reduced	significantly (p<0.01 Student's T test) reduced	inhibition	IL-4, IL-7 and IL-21	IL-2, IL-15 and IL-9	significantly (p<0.01 Student's T test) reduced	not affected	not inhibited		
LTHLIERSSRAVLQSLLRASRQ [BNZ130-1]													does not affect	dose-dependent antagonistic activity

Source: US10808009B2, “Peptide conjugates” (BIONIZ, LLC, priority 2011, dated 2020)
